In US7358376B2, “Substituted Thiophene compounds” (AstraZeneca AB, priority 2000, dated 2008) one finds melting point data, which are given here for 4 compounds.

Usually melting point stands for the temperature of the solid-liquid transition. The compound `COc1ccc(-c2cc(NC(N)=O)c(C(N)=O)s2)cc1` [Example 4, 3-[(Aminocarbonyl)amino]-5-(4-methoxyphenyl)-2-thiophenecarboxamide] came in with a melting point greater than 300 °C.

Turning to `CN(C)CCOc1ccc(-c2cc(NC(N)=O)c(C(N)=O)s2)cc1` [Example 10, 3-[(Aminocarbonyl)amino]-5-{4-[2-(dimethylamino)ethoxy]phenyl}-2-thiophenecarboxamide], the melting point is greater than 300 °C.

With `NC(=O)Nc1cc(-c2ccccc2Cl)sc1C(N)=O` [Example 7, 3-[(Aminocarbonyl)amino]5-(2-chlorophenyl)-2-thiophenecarboxamide], the melting point is greater than 300 °C.

Regarding `CN(C)CCOc1ccccc1-c1cc(NC(N)=O)c(C(N)=O)s1` [Example 9, 3-[(Aminocarbonyl)amino]-5-{2-[2-(dimethylamino)ethoxy]phenyl}-2-thiophenecarboxamide], the melting point worked out at 180 °C.
